Assay results as given in patent US9610370B2, “Compositions and methods for tumor imaging and targeting by a class of organic heptamethine cyanine dyes that possess dual nuclear and near-infrared properties” (University of Virginia Patent Foundation, priority 2011, dated 2017).
Read-outs that look alike come from different tables or passages of the source.

What was measured:
[1] = test system: human and mouse cancer cell lines in vitro and tumor xenografts in vivo; settings: cited from earlier work
MCF-7 xenograft tumors = assay: Nuclear imaging (microPET/microSPECT) of mice with MCF-7 xenograft tumors; assay type: in vivo; settings: for visualization of breast tumors in maximal projection images: PC-002 at 48 h post ip, 18F-FDG at 1.5 h post iv, same mouse, FIG. 4
Experimental: FIG. 1 depicts the SPECT/CT image of PC-001 with a nude mouse model of a human breast cancer MCF-7 xenograft in accordance with various embodiments of the present invention. […] SPECT/CT scan was performed at 20 h post injection.
FIG. 3 depicts the transverse PET images of PC-002 at 24 and 48 h post ip injection and ^18F-FDG at 1.5 h post iv injection of the same mouse (20 g) harbored with MCF-7 tumor xenografts in accordance with various embodiments of the present invention.
FIG. 4 depicts the comparison of maximal projection images (MPIs) of PC-002 at 48 h post ip injection and ^18F-FDG at 1.5 h post iv injection of the same mouse (20 g) harbored with MCF-7 tumor xenografts in accordance with various embodiments of the present invention.
FIG. 8 depicts the transverse PET images of PC-003 at 48 and 72 h post ip injection and with the same mouse (20 g) with MCF-7 tumor xenografts in accordance with various embodiments of the present invention.
PC-001, PC-002, and PC-003 were evaluated as nuclear imaging probe using mice with MCF-7 xenograft tumors. […] PC-002/PET images were compared with FDG/PET with same mice.

[2] = test system: subcutaneous C4-2 or tibial ARCaPM tumors; assay: Ex vivo fluorescent imaging and frozen-section microscopy of harvested tumors and soft tissues; assay type: in vivo, mice
Experimental: FIG. 11 depicts the harvested bone ARCaPM and subcutaneous C4-2 human prostate tumors embedded with OCT at −25° C. and subjected to frozen sectioning using Cryostat in accordance with various embodiments of the present invention. The frozen sections were fixed and aqueously mounted and imaged using fluorescent microscopy (200× magnification). Note the Dual Nuclear/NIR Agent was actively uptaken into tumor cells.
The PC-002 (2 nmole) was intravenously injected into mouse with either subcutaneous C4-2 or tibial ARCaPM tumors and the mice were subjected to fluorescent imaging using the Xenogen Imaging System at the interval of 1 h, 2 h, 4 h, 8 h, 10 h, 12 h, 24 h and 48 h after the dye injection. The fluorescence signal was found accumulating in subcutaneous C4-2 tumor beginning at 24 hr while the signal was found at 2 hr in the in intratibial ARCaPM tumor in mouse skeleton (FIG. 9).
The harvested bone (ARCaPM) and subcutaneous (C4-2) tumors were embedded with OCT at −25° C. and subjected to frozen sectioning using Cryostat.

[3] = Blood clearance in nude mice; settings: mouse, in vivo
Experimental: FIG. 6 depicts the blood clearance curve of PC-002 in nude mice in accordance with various embodiments of the present invention. The T1/2 is 256.9±13.2 min. (N=3).
The half-life (T1/2) of PC-001, PC-002, and PC-003 is 3, 4.3, and 3 hours, respectively. The long blood circulation times results in good images taken at later hours; for example, 24 to 72 hrs post injection.

[4] = test system: xenograft prostate tumors; assay: PET imaging of xenograft prostate tumors; assay type: in vivo, mice; settings: FIG. 16
Text: FIGS. 16A-D illustrate PET imaging of xenograft prostate tumors.
In the past, several attractive PET probes, such as ^18F-2-fluoro-2-deoxy-D-glucose (18 F-FDG) or 111In-tagged antibodies, and more recently the development of smaller sized versions of antibodies such as diabodies and minibodies recognizing PSMA and PSCA, have been proposed to detect PCa; but because of their relative large molecular weight as antibodies, potential host immune response to foreign antibodies, and the lack of Pca specificity using 18F-FDG, application of PET/SPECT probe to detect PCa has not been successful. […] As a small molecule, PC-002 has the advantages of being non-immunogenic, easier to purify and to scale-up, and higher stability for storage and shipping. Because of suboptimal NIR dye signal penetration through deep tissues, we chemically synthesized PC-002, a lead PET 64Cu-DOTA-NIR dye30, to facilitate future translation to the clinic. […] Based on this highly promising result, 64Cu-DOTA-based NIR dye for imaging PCa bone and soft tissue metastases can be used concurrently with 99 mTc-MDP to detect reactive bone activity. For example, this strategy can be used in the robust mouse models of PCa metastasis developed by our laboratory. […]

MCF-7 xenografts = assay: NIR fluorescence imaging, in vivo and ex vivo, of mice with MCF-7 xenografts; settings: dissected tumor, ex vivo, FIG. 7
Experimental: FIG. 2 depicts the NIR fluorescence image of PC-002 with a nude mouse (20 g) with MCF-7 tumor xenografts in accordance with various embodiments of the present invention. PC-002 (10 nmol) in saline (200 ul) was injected via tail vein. The live fluorescence images were performed at time points (as indicated) post injection using an IVIS Spectrum device (Ex/Em=745/800 nm).
FIG. 7 depicts the correlation of PC-002 uptake and ex vivo images in accordance with various embodiments of the present invention. A MCF-7 xenograft tumor was dissected and cut into two halves.
The optical imaging property of “cold” counterpart of PC-002, comprising stable copper isotope, was evaluated with mice models with MCF-7, C4-2, and ARCaPM tumors. In mice with MCF-7 xenografts, tumor uptake of PC-002 was discernable at 3 hrs post injection and contrast of tumor and normal tissues reached most profound at 24 hrs post injection (FIG. 2).
At 24 hrs post PC-002 injection, a MCF-7 xenograft tumor was dissected and cut into two halves. The viable sections of the tumor in white, right photograph matched with PC-002 fluorescence distribution performed using a Caliper Spectrum device (FIG. 7). The cancer cells in the microscopic image of the H/E stained tumor slice were also overlapped with PC-002 NIR fluorescence of the same tumor slice.

OATP = settings: cited from earlier work

Compound: CCCN1/C(=C/C=C2\CCCC(/C=C/C3=[N+](CCC)c4ccccc4C3(C)C)=C2Cl)C(C)(C)c2ccccc21.[I-] [IR-780]
- uptake and retention by cancer cell lines and tumor xenografts [1]: uptake and retention

Compound: CC1(C)C(/C=C/C2=C(Cl)C(=C/C=C3/N(CCCCCC(=O)NCCCCC(NC(=O)C[N+]45CC[N+]6(CC(=O)[O-])CC[N+]7(CC(=O)[O-])CC[N+](CC(=O)O)(CC4)[64Cu-2]765)C(=O)O)c4ccccc4C3(C)C)/CCC2)=[N+](CCCCCC(=O)O)c2ccccc21 (centres unmarked) [PC-002]
- SUV of MCF-7 tumor relative to hind leg muscles (MCF-7 xenograft tumors; FIG. 5): 6 times
- visualization of breast tumors in maximal projection images (MCF-7 xenograft tumors): clearly visualized
- suitability as nuclear imaging probe (MCF-7 xenograft tumors; microPET or microSPECT): suitable candidates for molecular imaging of cancer
- tumor contrast and selectivity compared with FDG/PET (MCF-7 xenograft tumors; same mice, FIGS. 3 and 4): higher tumor contrast and selectivity than FDG
- uptake in frozen sections, fluorescent microscopy ([2]; 200× magnification, FIG. 11): selectively uptaken in cancer cells
- uptake and retention, ex vivo fluorescent imaging ([2]; harvested at 24 hrs post injection, FIG. 10): in tumor only
- half-life ([3]; half-life (T1/2), blood clearance): 4.3 h
- half-life ([3]; nude mice, N=3, FIG. 6, read-out: blood clearance T1/2): 4.28 ± 0.22 h
- selectivity for tumor xenografts [4]: remarkable selectivity
- association of NIR and PC-002 signals with tumor tissue type (MCF-7 xenografts): associated with viable and not necrotic tissues

Compound: OC[C@H]1OC(O)[C@H]([18F])[C@@H](O)[C@@H]1O (stereo partly drawn) [FDG, 18F-2-fluoro-2-deoxy-D-glucose, reference compound]
- visualization of breast tumors in maximal projection images (MCF-7 xenograft tumors): only barely seen

Compound: CC1(C)C(=CC=C2CCCC(C=CC3=[N+](CCCCS(=O)(=O)[O-])c4ccccc4C3(C)C)=C2Cl)N(CCCCS(=O)(=O)[O-])c2ccccc21.[Na+] [IR783]
- uptake and retention by cancer cell lines and tumor xenografts [1]: uptake and retention

Compound: O=C1OC(c2ccc(O)c(S(=O)(=O)O)c2)(c2ccc(O)c(S(=O)(=O)O)c2)c2c(Br)c(Br)c(Br)c(Br)c21 [BSP]
- effect on NIR dye uptake (OATP): completely blocked
